Tests used:
DRG transcriptome = assay: RNA-seq and IPA analysis of dorsal root ganglia of cisplatin-treated mice; format: in vivo, mouse; details: cisplatin vs. PBS
From the text: Expression of 1,973 genes was changed in response to cisplatin when compared to the PBS mice (PBS vs. Cis; n=3 male mice per group). […] A cutoff of (−0.2<log 2 Fold Change <0.2) and p=0.1 was used for the analysis. […] Gray indicates effect cannot be predicted.
The mechanistic network of four regulators identified STAT3 as an intermediate regulator. […] For example, for the TP53 network, 14 regulators were part of the mechanistic network which together influence expression of 481 genes and out of these 481 genes, 64 target genes are controlled by STAT3.
RNA-seq and transcriptome analysis of dorsal root ganglion (DRG). […] Total RNA was isolated with the RNeasy MinElute Cleanup Kit (Qiagen, Hilden, Germany). Libraries were prepared with the Stranded mRNA-Seq kit (Kapa Biosystems, Wilmington, MA) following the manufacturer's guidelines. Stranded-mRNA seq was performed with a HiSeq4000 Sequencer (Illumina, San Diego, CA) with 76nt PE format by the RNA Sequencing Core at MD Anderson Cancer Center. Data analysis was performed as previously described (Chiu et al., 2018; Ma et al., 2019). Briefly, expression data of three samples per group were analyzed in R using bioconductor packages. STAR was used for alignment of paired-end reads to the mm10 version of the mouse reference genome; feature Counts was used to assign mapped sequence reads to genomic features, and DESeq2 was used to identify differentially expressed genes (padj<0.05). Quality check of raw and aligned reads was performed with FastQC and Qualimap. Next, we used Ingenuity Pathway Analysis (IPA; Qiagen Inc., https://www.qiagenbioinformatics.com/products/ingenuity-pathway-analysis/) for analysis of the canonical pathways implicated by cisplatin-induced transcriptome changes in DRG.

male C57BL/6 mice [1] = details: Krukowski et al., 2017; cited from earlier work
male C57BL/6 mice [2] = assay: Cisplatin model of chemotherapy-induced peripheral neuropathy (CIPN), von Frey mechanical allodynia; format: in vivo, mouse; details: two cycles of 5 daily doses of 2.3 mg/kg followed by 5 days rest
Method: Data were analyzed by two-way ANOVA repeated measures. Time: P<0.001; Group: P<0.001; Interaction P<0.001. **P<0.01 Tukey multiple comparison test. Data are from a representative experiment out of two with similar results.
Male C57/B16 mice (n=4 per group) were treated with cisplatin (two rounds of 5 daily doses of 2.3 mg/kg i.p. followed by 5 days of rest). […] Data were analyzed by two-way ANOVA repeated measures. Time: P<0.001; Group: P<0.001; Interaction P<0.01. **P<0.01 Tukey multiple comparison test.
Peripheral neuropathy has been observed with several small-molecule STAT3 inhibitors in clinical-stage development (Bendell et al., 2014; Genini et al., 2017; Ogura et al., 2015). […] This model was selected because it was shown previously that it is mediated by mitochondrial damage in the peripheral nervous system (Krukowski et al., 2017; Maj, Ma, Krukowski, Kavelaars & Heijnen, 2017). […] (FIG. 12).
Pain measurements and chemotherapy-induced peripheral neuropathy (CIPN).

STAT3βtr = molecular target: T1, STAT3βtr (Homo sapiens, UniProt P40763); assay: STAT3 alkylation study, targeted LC-MS/MS (MRM, QTrap 5500) of tryptic digests; format: biochemical; details: for number of STAT3βtr peptides alkylated: natively folded STAT3βtr, conditions optimal for alkylation, LC-MS/MS of tryptic digest
T1 construct: STAT3 (127-722) cDNA was cloned into a pET15b vector; made in house; host or cells: E. coli BL21 (DE), pET15b
T1 sequence (P40763 127-722 isoform P40763-3): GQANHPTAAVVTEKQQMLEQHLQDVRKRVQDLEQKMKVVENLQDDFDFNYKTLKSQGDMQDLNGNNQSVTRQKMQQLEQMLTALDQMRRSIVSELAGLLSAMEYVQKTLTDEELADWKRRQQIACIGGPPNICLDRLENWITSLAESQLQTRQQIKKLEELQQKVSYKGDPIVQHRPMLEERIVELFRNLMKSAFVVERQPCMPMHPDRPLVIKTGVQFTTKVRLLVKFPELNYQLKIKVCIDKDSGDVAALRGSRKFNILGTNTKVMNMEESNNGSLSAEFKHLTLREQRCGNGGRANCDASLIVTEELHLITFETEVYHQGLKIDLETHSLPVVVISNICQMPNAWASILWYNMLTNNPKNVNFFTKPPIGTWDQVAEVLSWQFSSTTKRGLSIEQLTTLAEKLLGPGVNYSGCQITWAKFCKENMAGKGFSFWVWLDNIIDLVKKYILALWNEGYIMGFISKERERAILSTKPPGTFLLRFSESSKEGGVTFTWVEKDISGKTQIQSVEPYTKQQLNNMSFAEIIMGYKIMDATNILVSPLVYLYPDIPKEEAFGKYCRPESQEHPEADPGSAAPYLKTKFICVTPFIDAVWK
From the text: To examine if this was a possibility, recombinant STAT3 was generated post-translationally unmodified in bacteria using a cDNA construct in which the domain containing the N-terminal oligomerization domain was deleted (STAT3βtr); this domain is not necessary for native folding of the core domains of STAT3 (CCD, DBD, linker domain, and SH2 domain) and its removal markedly improves recombinant STAT3 protein solubility. STAT3βtr contains 11 Cys residues. To determine how many of these Cys residues are available to be alkylated when soluble protein is natively folded, we incubated STAT3βtr with two protein alkylating agents, iodoacetamide and N-ethylmaleimide (NEM) under conditions optimal for alkylation (FIG. 11A-11B). […] The identity of the peptides were confirmed by performing full MS/MS spectra on the detected transitions. […] Five of the peptides contained a single alkylated Cys, while one of the peptides contained two alkylated Cys residues.
Expression and purification of recombinant STAT3. STAT3 (127-722) cDNA was cloned into a pET15b vector and transformed in BL21 (DE) (Life Technologies, Inc. Woburn, MA) Expression of the recombinant protein was inducing by 0.5 mM IPTG, at 20° C. for 5 hr. The recombinant STAT3 protein was purified by ammonium sulfate precipitation followed by an ion exchange step with HiTrap Q columns (GE Healthcare Bio-Sciences, Uppsala Sweden) and size exclusion chromatography to achieve purity of over 98%.
(§1) STAT3 alkylation studies. Purified recombinant core fragment of STAT3β protein in ammonium bicarbonate buffer (10 μM) was mixed with each compound at a final concentration of 100 μM. The protein mixture was then incubated at 37° C. overnight. Samples were reduced with 5 mM DTT at 37 °C for one hour and further alkylated with iodoacetamide (15 mM) for 30 minutes at RT in the dark, followed by digestion with trypsin gold in a dry incubator at 37° C. overnight. Formic acid was added the next day to 5% and each protein sample was diluted in 5 mM ammonium acetate containing 0.5% formic acid immediately prior to analysis by Targeted Mass Spectrometry Multiple Reaction Monitoring (MRM).
LC-MS/MS. A QTRAP 5500 Sciex hybrid quadrupole-linear ion trap system with a TurboIonSpray ion source in positive mode and equipped with a Sciex LC Exion liquid chromatography system was used to analyze tryptic digests of STAT3 protein samples treated with STAT3 inhibitors. Fractionation of the samples was done using a Waters Symmetry C18 column (100 Å, 3.5 μm, 4.6 mm×150 mm) and a 30 min linear gradient of acetonitrile with 0.1% formic acid at a flow rate of 300 uL/min. A transition list of cysteine-containing peptides with expected drug-cysteine adducts were generated in Skyline software and exported to the QTRAP mass spectrometer to developed acquisition methods. Resultant raw data files generated in the QTRAP were imported back into Skyline for analysis and additional processing.

STAT3 = molecular target: T2, STAT3 (Homo sapiens, UniProt P40763); assay: STAT3 alkylation study, high resolution LC-MS/MS for unknown chemical adducts; format: biochemical; details: vs. STAT3 incubated with DMSO
T2 construct: STAT3 (127-722) cDNA was cloned into a pET15b vector; made in house; host or cells: E. coli BL21 (DE), pET15b
T2 sequence (P40763 127-722 isoform P40763-3): as above
Method: FIGS. 11A-11C show alkylation of STAT3βtr by iodoacetamide and NEM. […] The dotted line indicates the cutoff for a significant Z-score.
as §1, with “Formic acid was added the next day to 5% and each protein sample was diluted in 5 mM ammonium acetate containing 0.5% formic acid immediately prior to analysis by Targeted Mass Spectrometry Multiple Reaction Monitoring (MRM).” left out
High resolution LC/MS. An aliquot of the tryptic digests of STAT3 proteins treated with DMSO (control) and those treated with Stattic and TTI101 were analyzed by LC-MS/MS on an Ultimate 3000 RSLC-Nano chromatograph interfaced to an Orbitrap Fusion high-resolution mass spectrometer (Thermo Scientific, Waltham MA). All MS/MS data were analyzed using Sequest-HT (Thermo Scientific). […] To access for potential unknown modifications, the data was analyzed in MaxQuant using the dependent peptide search option (Tyanova, Temu & Cox, 2016). All peptides output list was analyzed by comparing Stattic, TTI101 and TTI101ox with DMSO treated samples as described in (Antinori, Michelot, Lescuyer, Müller & Acosta-Martin, 2019).

DU-145 cells = assay: Seahorse XF Cell Mito Stress Test, oxygen consumption rate (OCR); format: cell-based, human
Method: FIGS. 1A-1C show the effects of STAT3 inhibitors on mitochondrial function. DU-145 cells were treated with the indicated STAT3 inhibitors at 30 μM for 2 Hrs.
DU-145 cells were treated with STAT3 inhibitors at 10-30 μM for 2 Hrs. Data are representative of 4 or more independent experiments.
ATP production, maximal respiration, proton leak, and spare respiratory capacity. […] Similarly.
Mitochondrial assays. DU-145 cells (2.5×10^4) were seeded per well in a XF24 plate and incubated at 37° C./5% CO2 in complete RPMI medium. After 12 Hrs complete medium was replaced with nutrient depleted four-day culture media: conditioned media (CM) and incubated for 4 Hrs. Cells were then treated for another 2 Hrs with STAT3 inhibitors prior to analysis using a Seahorse XF24 Analyzer. The Oxygen Consumption Rate (OCR) was measured in DMEM XF base medium containing 10 mM glucose and 2 mM glutamine and 1 mM pyruvate, before and after the sequential injection of oligomycin, FCCP and rotenone/antimycin A to final concentrations of 1 μM, 1 μM and 0.5 μM respectively. Basal and maximal respiration values were estimate by subtraction of OCR value after treatment of cells with rotenone and antimycin A (which reflects non-mitochondrial respiration) from OCR values in cells treated with oligomycin and FCCP respectively.

[3] = Glutathione reaction study (UV-HPLC stability with GSH); format: physicochemical
Method: The AUC of each compound measured at the times indicated by UV-HPLC and expressed as percent of the starting AUC of the peaks. Data are representative of four independently performed experiments.
Each reaction mixture was sampled at time 0 and every 5 minutes for 50 minutes; all samples were analyzed by HPLC. The amount of unreacted inhibitor was determined by measuring the area under the curve (AUC) and plotting this value as a percentage of the starting AUC as a function of time (FIG. 3). […] In contrast, there was no loss of TTI-101 in the presence of GSH.
Glutathione reaction studies. STAT3 inhibitors (10 ul of 10 mM stock in DMSO) were spiked into reaction buffer [50 mM HEPES pH7.5 containing 10 mM reduced glutathione (GSH)] the samples were mixed thoroughly and placed in an autosampler set at 20° C. The reactions were monitored by high performance liquid chromatography (HPLC) using an Exion LC Sciex unit equipped with a UV detector. The stationary phase used was a C18 Synergi™ 4 μm Fusion-RP 80 Å LC column (50×2 mm); the mobile phase was water (A) and acetonitrile (B). The elution process consisted of an isocratic step with 20% mobile phase B, followed by 80% B, for 2 minutes. The flow rate was maintained at 0.5 mL/min during the run. Measurements were conducted at intervals of 5 minutes for a period of 55 minutes total. The presence of the STAT3 inhibitors were quantified by calculating the area under the curves (AUCs) of the compound peaks at 260-295 nm.

In the case of `N.N.[Cl][Pt][Cl]` [cisplatin, reference compound], the “VEGF signaling (IPA comparison analysis)” value (DRG transcriptome) is reported as “predicted activation of VEGF signaling”, the “genes down in DRG” value (DRG transcriptome) is reported as 675 genes and the “genes up in DRG” value (DRG transcriptome) is reported as 1,298 genes. For the same molecule, the “genes with changed expression in DRG” value (DRG transcriptome) was 1,973 genes, the “duration of induced mechanical allodynia” value (male C57BL/6 mice [1]) was “at least 75 days” and the “induction of mechanical allodynia” value (male C57BL/6 mice [2]) was “induces mechanical allodynia”.
With `NC(=O)CI` [iodoacetamide] the “number of STAT3βtr peptides alkylated” value (STAT3βtr) was 6 peptides.
With `O=[N+]([O-])c1ccc2c(c1)S(=O)(=O)C=C2` [Stattic] the “adducts on Cys containing STAT3 peptides (alkylation), targeted LC-MS/MS” value (STAT3βtr; STAT3βtr 10 μM, compound 100 μM, 37° C. overnight) was “covalent modification of STAT3”, the “alkylated peptides, targeted and untargeted LC-MS/MS” value (STAT3βtr; STAT3βtr tryptic digests, Qtrap 5500 and Orbitrap, FIGS. 4A-4C (Stattic)) was “eight” and the “chemical adducts / mass shifts of STAT3 peptides, untargeted high resolution LC-MS/MS” value (STAT3) was “adducts were detected”. For the same molecule, the “OCR curves compared to DMSO control” value (DU-145 cells; 2 Hrs, 10 and 30 μM (3-fold and 10-fold TTI-101 IC50)) was “did not consistently alter the OCR curves”, the “unreacted inhibitor level (AUC) as percent of baseline in the presence of GSH” value ([3]; 100 μM in 50 mM HEPES pH 7.5, 10 mM GSH, within 5 minutes) was less than 10% and the “inhibitor level in the absence of GSH” value ([3]; without GSH) was “remaining constant”.
For `C[C@H]1COC2=C1C(=O)C(=O)c1c2ccc2c1CCCC2(C)C` [cryptotanshinone], the “reduction in ATP level production” value (DU-145 cells; 30 μM) was 50%.
For `CCN1C(=O)C=CC1=O` [NEM, N-ethylmaleimide], the “number of STAT3βtr peptides alkylated” value (STAT3βtr) was 6 peptides.

Source: patent US20240226041A1, “METHODS AND COMPOSITIONS FOR TREATMENT OF NEUROPATHIC PAIN USING STAT3 INHIBITORS” (priority 2021, published 2024)
